Assay results reported in BigSolDB 2.1.

`Cc1cnc(C(=O)O)c[n+]1[O-]` gave a solubility (mole fraction) (in acetone, 283.15 K) of 0.00157, a solubility (mole fraction) (in acetone, 288.15 K) of 0.00176 and a solubility (mole fraction) (in acetone, 293.15 K) of 0.00198. For the same compound, the solubility (mole fraction) (in acetone, 298.15 K) was 0.00222, the solubility (mole fraction) (in acetone, 303.15 K) was 0.00249 and the solubility (mole fraction) (in acetone, 308.15 K) was 0.00279. The solubility (mole fraction) (in acetone, 313.15 K) was 0.00317, the solubility (mole fraction) (in acetone, 318.15 K) was 0.00362 and the solubility (mole fraction) (in acetonitrile, 283.15 K) was 0.00057. For the same compound, the solubility (mole fraction) (in acetonitrile, 288.15 K) was 0.000757, the solubility (mole fraction) (in acetonitrile, 293.15 K) was 0.00097 and the solubility (mole fraction) (in acetonitrile, 298.15 K) was 0.00118. For the same compound, the solubility (mole fraction) (in acetonitrile, 303.15 K) was 0.00142, the solubility (mole fraction) (in acetonitrile, 308.15 K) was 0.00172 and the solubility (mole fraction) (in acetonitrile, 313.15 K) was 0.00205. The solubility (mole fraction) (in acetonitrile, 318.15 K) was 0.00249, the solubility (mole fraction) (in methanol, 283.15 K) was 0.00211 and the solubility (mole fraction) (in methanol, 288.15 K) was 0.00244. For the same compound, the solubility (mole fraction) (in methanol, 293.15 K) was 0.00285, the solubility (mole fraction) (in methanol, 298.15 K) was 0.00328 and the solubility (mole fraction) (in methanol, 303.15 K) was 0.00381. The solubility (mole fraction) (in methanol, 308.15 K) was 0.00443, the solubility (mole fraction) (in methanol, 313.15 K) was 0.00517 and the solubility (mole fraction) (in methanol, 318.15 K) was 0.00598. The solubility (mole fraction) (in water, 283.15 K) was 0.00198, the solubility (mole fraction) (in water, 288.15 K) was 0.00227 and the solubility (mole fraction) (in water, 293.15 K) was 0.00265. It also gave a solubility (mole fraction) (in water, 298.15 K) of 0.0031, a solubility (mole fraction) (in water, 303.15 K) of 0.0036 and a solubility (mole fraction) (in water, 308.15 K) of 0.00426. For the same compound, the solubility (mole fraction) (in water, 313.15 K) was 0.00498 and the solubility (mole fraction) (in water, 318.15 K) was 0.00579.
